“Also recorded” adds a separate entry of the source.
Key:
[1] = test system: Rhodococcus sp. strain 213E; experiment: Growth studies of strain 213E in mineral salts medium with a sole sulphur source (biomass OD600, Gibbs phenol assay, GC-MS of metabolites); conditions: for Mean Generation time / Biomass at end log phase: strain 213E in FruRM
Method: (§1) The final pH was 7.2 without titration. In some experiments another sugar replaced glucose as the carbon-source.
(§2) For cultures of strain IGTS8, DST (200 μM, added from a stock solution, 40 mM in acetone) was included.
(§3) Growth studies SRM (50 ml in a 100 ml Ehrlenmyer flask) was inoculated with a loopful of cells from a plate and incubated in an orbital shaker (250 rpm, 30° C.). At intervals as appropriate, an 3 ml sample was removed aseptically for measurement of biomass (as optical density at 600 mm, O.D.600) and for phenol production using the Gibbs Assay. The Gibbs Assay was carried out as follows: 1.5 ml of the sample was aliquoted into a Eppendorf tube, centrifuged (12000 rpm, 5 min) to remove the cells and frozen (−20° C.) until the end of the experiment. The samples were then thawed out and 1.0 ml of the supernatant was transferred to a 1 ml disposable spectrophotometer cuvette. 10 μl Gibbs reagent (10 mM in acetone) was then added to each cuvette. A blank solution (SRM +10 μg Gibbs reagent) was also prepared. The set was incubated overnight at 30° C., for full colour development, and the absorbance at 610 nm was measured.
(§4) Cells were removed by centrifugation at 2800×g (3000 rpm) for 30 mins and the supernatant was titrated to pH 1 with 50% HCl and extracted three times with equal volumes of ethyl acetate. The ethyl acetate extracts ware pooled and dried by stirring for 1 h with anhydrous MgSO4 (100 g/l). The ethyl acetate was removed by rotory evaporation and the solids re-dissolved in 3.0 ml ethyl acetate.
(§5) The GC was fitted with a Hewlett Packard capillary column HP-5MS, of length 30 m. The carrier gas was helium. Run conditions were as follows: Start temperature 40° C. held for 2 min, followed by 10° C./min ramp rate to final temperature 240° C. Total run time, 24 min. The mass scan range was 40 to 550 amu.
(§6) The flasks were incubated in an orbital shaker (120 rpm, 30° C.). At intervals 3 ml was withdrawn from each culture under sterile conditions for measurement of biomass and phenol concentration, as described in methods. The cells were also Gram stained and examined under the microscope.

[2] = test system: Rhodococcus sp. strain 213F; experiment: Growth studies of strain 213F in mineral salts medium with a sole sulphur source (biomass OD600, Gibbs phenol assay, GC-MS of metabolites); conditions: for Mean Generation time / Biomass at end log phase: strain 213F in FruRM; for Mean Generation time / mean generation time (MGT) / Biomass at end log phase: sulphur source 200 μM; for mean generation time (MGT): strain 213F, (FruRM)
Method: as §1, §3
The flasks were incubated in an orbital shaker (120 rpm, 30° C.). At intervals 3 ml was withdrawn from each culture under sterile conditions for measurement of biomass and phenol concentration, as described in methods.

[3] = test system: Rhodococcus sp. strain IGTS8; experiment: Growth studies of strain IGTS8 in mineral salts medium with a sole sulphur source (biomass OD600, Gibbs phenol assay, GC-MS of metabolites); conditions: for mean generation time (MGT): strain IGTS8, as stated in the text (FruRM)
Method: as §1, §2, §3, §4, §5, §6

[4] = test system: Rhodococcus sp. strain IGTS8; conditions: background statement; cited from earlier work
strain ECRD-1 = conditions: Lee, Senius and Grossman, 1996; cited from earlier work
strain N1-36 = conditions: Wang and Krawiec, 1996a; cited from earlier work
[5] = strain IGTS8 in SRM, sulphur source 200 μM

Compound | Mean Generation time ([1]; sulphur source 200 μM) | Mean Generation time [2] | mean generation time (MGT) [2] | mean generation time (MGT) ([3]; sulphur source 200 μM) | Mean Generation time [3, 5] | desulphurisation of compound by IGTS8 [4] | desulphurisation of compound by strain 213E [1] | desulphurisation of compound by strain 213F [2] | Biomass at end log phase [2] | desulphurisation of compound by strain IGTS8 [3] | further results
O=S(=O)([O-])[O-].[Na+].[Na+] [sulphate, Sodium sulphate] | 4.4 h | 3.6 h | around 4 h | around 4 h | 3.2 h | – | – | – | – | – | mean generation time (MGT) ([1]; strain 213E, sulphur source 200 μM): around 4 h
c1ccsc1 [thiophene] | – | – | – | – | – | not | – | – | – | – | –
c1ccc2sccc2c1 [BTH, benzothiophene] | 9.0 h | 8.0 h | around 8 h | – | – | not | efficiently desulphurise | efficiently desulphurise; also recorded: able to desulphurise; also recorded: appears to desulphurise | 6.0 OD600 | unable to desulphurise; also recorded: does not desulplurise | desulphurisation activity of strain ECRD-1 (strain ECRD-1): negligible; desulphurisation activity of strain N1-36 (strain N1-36): negligible; toxicity to strain 213E (effect on MGT) ([1]; concentration range <200 μM (growth curves 50-200 μM)): not toxic; Biomass at end log phase ([1]; sulphur source 50 μM): 2.3 OD600; Mean Generation time ([1]; sulphur source 50 μM): 8.0 h; Biomass at end log phase ([1]; sulphur source 100 μM): 3.0 OD600; Mean Generation time ([1]; sulphur source 100 μM): 8.6 h; Biomass at end log phase ([1]; sulphur source 200 μM): 4.2 OD600; growth with compound as sole sulphur source ([3]; strain IGTS8 in SRM, over a period of 100 h): no significant growth
c1ccc2c(c1)sc1ccccc12 [DBT, dibenzothiophene] | – | 12.4 h | 12 h | around 8 h | 7.0 h | desulphurises | unable to desulphurise; also recorded: does not desulphurise | able to desulphurise; also recorded: appears to desulphurise | 5.4 OD600 | desulphurised | growth with compound as sole sulphur source ([1]; strain 213E, compound substituted for BTH, FruRM, over a period of 100 h): no significant growth; Biomass at end log phase ([3]; strain IGTS8 in SRM, sulphur source 200 μM, 1 cm pathlength): 6.0 OD600
